Measured values: ChEMBL document CHEMBL1157770, “Functionalized pyrazoles and pyrazolo[3,4-d]pyridazinones: Synthesis and evaluation of their phosphodiesterase 4 inhibitory activity” (Bioorg Med Chem, 2010)
pIC50: −log10 of the molar value.

Target: T1, Phosphodiesterase 4 (Homo sapiens, UniProt P27815+Q08499+Q07343+Q08493)
Experiment: Inhibition of PDE4 in human U937 cells after 30 mins by electrochemiluminescence based immunoassay
Format: cell-based
Details: u-937

| SMILES | IC50 [nM] |
| --- | --- |
| CCOC(=O)c1nn(CC)c(=O)c2nn(-c3ccccc3C)c(C)c12 | 59 |
| CCOC(=O)c1nn(CC)c(=O)c2nn(Cc3ccc([N+](=O)[O-])cc3)c(C)c12 | 1140 |
| CCOC(=O)c1nn(CC2CC2)c(=O)c2nn(-c3ccccc3Cl)c(C)c12 | 374 |
| CCOC(=O)c1nn(CC)c(=O)c2nn(-c3ccccc3)c(C)c12 | 300 |
| CCOC(=O)c1nn(CC)c(=O)c2nn(-c3cccc([N+](=O)[O-])c3)c(C)c12 | 75 |
| CCn1nc(C(=O)OC)c2c(C)n(-c3cccc([N+](=O)[O-])c3)nc2c1=O | 46 |
| CCOC(=O)c1nn(CC)c(=O)c2nn(-c3c(Cl)cccc3Cl)c(C)c12 | 237 |
| CCOC(=O)c1nn(CC)c(=O)c2nn(Cc3ccc(C(=O)OC)cc3)c(C)c12 | 1200 |
| CCOC(=O)c1nn(CC)c(=O)c2nn(-c3cc(C(N)=O)ccc3Cl)c(C)c12 | 757 |
| CCOC(=O)c1nn(CC)c(=O)c2nn(-c3ccccc3Cl)c(C)c12 | 32 |
| CCn1nc(C)c2c(C)n(-c3cccc([N+](=O)[O-])c3)nc2c1=O | 385 |
| CCOC(=O)c1nn(CC)c(=O)c2nn(-c3cc(C(=O)OC)ccc3C)c(C)c12 | 876 |
| CCCn1nc(C(=O)OCC)c2c(C)n(-c3cccc([N+](=O)[O-])c3)nc2c1=O | 72 |

Target: T1, Phosphodiesterase 4
Experiment: Inhibition of PDE4 in human U937 cells at 1 uM after 30 mins by electrochemiluminescence based immunoassay
Format: cell-based
Details: U-937

| SMILES | inhibition [%] |
| --- | --- |
| CCOC(=O)c1nn(CC)c(=O)c2nn(-c3cccc(CO)c3)c(C)c12 | 39 |
| CCn1nc(-c2ccccc2)c(C#N)c1CCc1ccccc1C(=O)O | 11 |
| CCOC(=O)Cn1nc(C)c2c(C)n(-c3cccc([N+](=O)[O-])c3)nc2c1=O | 64.1 |
| CCn1nc(COC)c2cn(-c3ccccc3Cl)nc2c1=O | 65 |
| CCn1nc(-c2ccncc2)c(C#N)c1CCc1cccc2ccccc12 | 2.8 |
| CCOC(=O)CCn1nc(-c2ccccc2)c2c(C)n(-c3cccc([N+](=O)[O-])c3)nc2c1=O | 1 |
| COCc1nn(CC2CC2)c(=O)c2nn(-c3ccccc3Cl)cc12 | 19 |
| CCOC(=O)CCn1nc(C)c2c(C)n(-c3cccc([N+](=O)[O-])c3)nc2c1=O | 4 |
| Cc1nn(C)c(CCc2ccccc2)c1C#N | 2.1 |
| COc1ccc(CCc2c(C#N)c(-c3ccccc3)nn2C)cc1OC | 14 |
| CCCOC(=O)c1nn(CC)c(=O)c2nn(-c3cccc([N+](=O)[O-])c3)c(C)c12 | 14 |
| CCn1nc(-c2ccccc2)c(C#N)c1/C=C/c1ccccc1C(=O)O | 6 |
| CCn1nc(C(=O)OC(C)C)c2c(C)n(-c3cccc([N+](=O)[O-])c3)nc2c1=O | 6 |
| CCn1nc(CO)c2c(C)n(-c3ccccc3Cl)nc2c1=O | -4 |
| CCOC(=O)Cn1nc(-c2ccccc2)c2c(C)n(-c3cccc([N+](=O)[O-])c3)nc2c1=O | 1 |
| Cc1nn(C)c(/C=C/c2ccccc2)c1C#N | 1.3 |
| CCn1nc(COC)c2c(C)n(-c3ccccc3Cl)nc2c1=O | 41 |
| CCn1nc(-c2ccncc2)c(C#N)c1/C=C/c1cccc2ccccc12 | 19 |
| CCn1nc(C(=O)NC)c2c(C)n(-c3cccc([N+](=O)[O-])c3)nc2c1=O | 14 |
| CCn1nc(C(=O)Nc2c(Cl)cncc2Cl)c2c(C)n(-c3ccccc3)nc2c1=O | 3 |
| CCN(C)C(=O)c1nn(CC)c(=O)c2nn(-c3cccc([N+](=O)[O-])c3)c(C)c12 | -2 |
| CCn1nc(-c2nnc(C)o2)c2c(C)n(-c3cccc([N+](=O)[O-])c3)nc2c1=O | 48 |
| CCn1nc(-c2ccccc2)c(C#N)c1CCc1cccc2ccccc12 | -3 |
| CCn1nc(-c2ccccc2)c(C#N)c1/C=C/c1cccc2ccccc12 | 35 |
| CCn1nc(-c2ccccc2)c2c(C)n(-c3cccc([N+](=O)[O-])c3)nc2c1=O | 47 |
| CCn1nc(C#N)c2c(C)n(-c3c(Cl)cccc3Cl)nc2c1=O | 2 |
| CCn1nc(C(=O)O)c2c(C)n(-c3cccc([N+](=O)[O-])c3)nc2c1=O | 2 |
| CCn1nc(C#N)c2c(C)n(-c3ccccc3Cl)nc2c1=O | -2 |
| CCn1nc(C(=O)N(C)C)c2c(C)n(-c3cccc([N+](=O)[O-])c3)nc2c1=O | 4 |

Target: T1, Phosphodiesterase 4
Experiment: Inhibition of PDE4 in human U937 cells at 10 uM after 30 mins by electrochemiluminescence based immunoassay
Format: cell-based
Details: U-937

| SMILES | inhibition [%] |
| --- | --- |
| CCOC(=O)c1nn(CC)c(=O)c2nn(Cc3ccc(C#N)cc3)c(C)c12 | 5 |

Tested on: PBMC
Experiment: Antiinflammatory activity in human PBMC assessed as inhibition of LPS-induced TNFalpha production
Format: functional, cell-based
Details: not given

| SMILES | pIC50 |
| --- | --- |
| CCOC(=O)c1nn(CC)c(=O)c2nn(-c3ccccc3C)c(C)c12 | 6.90 |
| CCOC(=O)c1nn(CC)c(=O)c2nn(-c3cccc([N+](=O)[O-])c3)c(C)c12 | 6.42 |
